Test results published in patent publication US10738056B2 (Aduro BioTech, Inc., priority 2017, dated 2020).
Where two headings read alike, the source gives them in different places.

Legend:
[1] = target: Human cGAS amino acids 155-522 (Homo sapiens (Human), UniProt Q8N884); test: cGAS biochemical activity assay (ATP remaining, Kinase-Glo Max luminescence); conditions: human cGAS 155-522, ATP remaining (Kinase-Glo Max); read-out: cGAS IC50
[2] = tested on: cGAS/STING pathway in THP1 cells; test: THP1 cell-based cGAS/STING pathway activity assay (IRF-3-linked luciferase reporter)
Method in brief: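 THP1 cells carrying an IRF-3-driven luciferase reporter were read across a range of compound concentrations, and IC50 values were derived from these concentration responses; the assay upper limit was 100 μM.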

Sequence of Human cGAS amino acids 155-522 (Q8N884 157-522): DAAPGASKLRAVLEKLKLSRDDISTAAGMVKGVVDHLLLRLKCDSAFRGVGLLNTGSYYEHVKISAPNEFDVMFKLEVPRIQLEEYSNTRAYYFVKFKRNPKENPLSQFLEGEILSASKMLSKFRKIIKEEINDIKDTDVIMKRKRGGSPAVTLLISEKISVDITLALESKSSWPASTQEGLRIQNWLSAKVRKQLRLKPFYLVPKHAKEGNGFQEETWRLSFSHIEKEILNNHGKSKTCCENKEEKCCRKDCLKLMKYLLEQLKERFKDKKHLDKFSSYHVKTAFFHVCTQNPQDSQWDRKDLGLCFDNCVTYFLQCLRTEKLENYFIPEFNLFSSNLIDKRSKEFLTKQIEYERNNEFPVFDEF

An IC50 [1] of 20 to 250 µM and an IC50 ([2]; Homo sapiens, THP-1) of over 100 µM were found for `COc1cccc2nc(-c3c(C)[nH]c4c(-c5ccccc5)c(C(F)(F)F)nn4c3=O)n(C)c12` [Compound C1065, 6-(7-methoxy-1-methyl-1H-benzo[d]imidazol-2-yl)-5-methyl-3-phenyl-2-(trifluoromethyl)pyrazolo[1,5-a]pyrimidin-7(4H)-one] in this work.

An IC50 [1] of under 20 µM and an IC50 ([2]; Homo sapiens, THP-1) of over 100 µM were found for `Cc1[nH]c2c(-c3ccccc3)c(C(F)(F)F)nn2c(=O)c1-c1nnc(C2CCCCO2)o1` (stereo not shown) [Compound D1024, 5-methyl-3-phenyl-6-(5-(tetrahydro-2H-pyran-2-yl)-1,3,4-oxadiazol-2-yl)-2-(trifluoromethyl)pyrazolo[1,5-a]pyrimidin-7(4H)-one] in this work.

An IC50 [1] of under 20 µM and an IC50 ([2]; Homo sapiens, THP-1) of under 20 µM were found for `Cc1[nH]c2c(-c3ccccc3)c(C(F)(F)F)nn2c(=O)c1C(=O)Nc1cccc(OC(C)C)c1` [Compound A1066, N-(3-isopropoxyphenyl)-5-methyl-7-oxo-3-phenyl-2-(trifluoromethyl)-4,7-dihydropyrazolo[1,5-a]pyrimidine-6-carboxamide] in this work.

An IC50 [1] of over 250 µM and an IC50 ([2]; Homo sapiens, THP-1) of under 20 µM were found for `COc1ccc2oc(-c3c(C)[nH]c4c(-c5ccccc5)c(C(F)(F)F)nn4c3=O)nc2c1` [Compound C1012, 6-(5-methoxybenzo[d]oxazol-2-yl)-5-methyl-3-phenyl-2-(trifluoromethyl)pyrazolo[1,5-a]pyrimidin-7(4H)-one] in this work.

An IC50 [1] of 20 to 250 µM and an IC50 ([2]; Homo sapiens, THP-1) of over 100 µM were found for `Cc1[nH]c2c(-c3ccccc3)c(C(F)(F)F)nn2c(=O)c1-c1nnc(C2COCCN2)o1` (stereo not shown) [Compound D1042, 5-methyl-6-(5-(morpholin-3-yl)-1,3,4-oxadiazol-2-yl)-3-phenyl-2-(trifluoromethyl)pyrazolo[1,5-a]pyrimidin-7(4H)-one] in this work.

An IC50 [1] of under 20 µM and an IC50 ([2]; Homo sapiens, THP-1) of under 20 µM were found for `Cc1[nH]c2c(-c3ccccc3)c(C(F)(F)F)nn2c(=O)c1C(=O)Nc1cccc(C#N)c1` [Compound A1070, N-(3-cyanophenyl)-5-methyl-7-oxo-3-phenyl-2-(trifluoromethyl)-4,7-dihydropyrazolo[1,5-a]pyrimidine-6-carboxamide] in this work.

An IC50 [1] of under 20 µM and an IC50 ([2]; Homo sapiens, THP-1) of 20 to 100 µM were found for `COc1ccc(C(=O)O)c2oc(-c3c(C)[nH]c4c(-c5ccccc5)c(C(F)(F)F)nn4c3=O)nc12` [Compound C1130] in this work.

An IC50 [1] of under 20 µM and an IC50 ([2]; Homo sapiens, THP-1) of over 100 µM were found for `COC[C@@H]1COC(c2c(C)[nH]c3c(-c4ccccc4)c(C(F)(F)F)nn3c2=O)=N1` [Compound C1184, (R)-6-(4-(methoxymethyl)-4,5-dihydrooxazol-2-yl)-5-methyl-3-phenyl-2-(trifluoromethyl)pyrazolo[1,5-a]pyrimidin-7(4H)-one] in this work.

An IC50 [1] of 20 to 250 µM and an IC50 ([2]; Homo sapiens, THP-1) of under 20 µM were found for `COc1cccc2c(-c3c(C)[nH]c4c(-c5ccccc5)c(C(F)(F)F)nn4c3=O)n[nH]c12` [Compound C1026, 6-(7-methoxy-1H-indazol-3-yl)-5-methyl-3-phenyl-2-(trifluoromethyl)pyrazolo[1,5-a]pyrimidin-7(4H)-one] in this work.

An IC50 [1] of under 20 µM and an IC50 ([2]; Homo sapiens, THP-1) of over 100 µM were found for `Cc1[nH]c2c(-c3ccccc3)c(C(F)(F)F)nn2c(=O)c1-c1nnc(C2=NCCCN2)o1` [Compound D1072, 5-methyl-3-phenyl-6-(5-(1,4,5,6-tetrahydropyrimidin-2-yl)-1,3,4-oxadiazol-2-yl)-2-(trifluoromethyl)pyrazolo[1,5-a]pyrimidin-7(4H)-one] in this work.

An IC50 [1] of under 20 µM and an IC50 ([2]; Homo sapiens, THP-1) of 20 to 100 µM were found for `COc1ccc(C#N)c2oc(-c3c(C)[nH]c4c(-c5ccccc5)c(C(F)(F)F)nn4c3=O)nc12` [Compound C1100, 4-methoxy-2-(5-methyl-7-oxo-3-phenyl-2-(trifluoromethyl)-4,7-dihydropyrazolo[1,5-a]pyrimidin-6-yl)benzo[d]oxazole-7-carbonitrile] in this work.

An IC50 [1] of under 20 µM and an IC50 ([2]; Homo sapiens, THP-1) of over 100 µM were found for `COCc1[nH]c2c(-c3ccccc3)c(C#N)nn2c(=O)c1-c1nc2c(OC)nc(N)cc2o1` [Compound C1227, 6-(6-amino-4-methoxyoxazolo[4,5-c]pyridin-2-yl)-5-(methoxymethyl)-7-oxo-3-phenyl-4,7-dihydropyrazolo[1,5-a]pyrimidine-2-carbonitrile] in this work.

An IC50 [1] of under 20 µM and an IC50 ([2]; Homo sapiens, THP-1) of over 100 µM were found for `COc1cccc2oc(-c3c(-c4cn[nH]c4)[nH]c4c(-c5ccccc5)c(C(F)(F)F)nn4c3=O)nc12` [Compound C1254, 6-(4-methoxybenzo[d]oxazol-2-yl)-3-phenyl-5-(1H-pyrazol-4-yl)-2-(triluoromethyl)pyrazolo[1,5-a]pyrimidin-7(4H)-one] in this work.

An IC50 [1] of under 20 µM and an IC50 ([2]; Homo sapiens, THP-1) of over 100 µM were found for `CNc1cccc2oc(-c3c(C)[nH]c4c(-c5ccccc5)c(C#N)nn4c3=O)nc12` [Compound C1274, 5-methyl-6-(4-(methylamino)benzo[d]oxazol-2-yl)-7-oxo-3-phenyl-4,7-dihydropyrazolo[1,5-a]pyrimidine-2-carbonitrile] in this work.

An IC50 [1] of under 20 µM and an IC50 ([2]; Homo sapiens, THP-1) of over 100 µM were found for `COc1ccc(CO)c2oc(-c3c(C)[nH]c4c(-c5ccccc5)c(C(F)(F)F)nn4c3=O)nc12` [Compound C1224, 6-(7-(hydroxymethyl)-4-methoxybenzo[d]oxazol-2-yl)-5-methyl-3-phenyl-2-(trifluoromethyl)pyrazolo[1,5-a]pyrimidin-7(4H)-one] in this work.

An IC50 [1] of under 20 µM and an IC50 ([2]; Homo sapiens, THP-1) of 20 to 100 µM were found for `COc1cccc2oc(-c3c(CO)[nH]c4c(-c5ccccc5)c(C(F)(F)F)nn4c3=O)nc12` [Compound C1103, 5-(hydroxymethyl)-6-(4-methoxybenzo[d]oxazol-2-yl)-3-phenyl-2-(trifluoromethyl)pyrazolo[1,5-a]pyrimidin-7(4H)-one] in this work.

An IC50 [1] of under 20 µM and an IC50 ([2]; Homo sapiens, THP-1) of over 100 µM were found for `Cc1[nH]c2c(-c3ccccc3)c(C(F)(F)F)nn2c(=O)c1-c1nc(CO)c(C(C)C)o1` [Compound C1143, 6-(4-(hydroxymethyl)-5-isopropyloxazol-2-yl)-5-methyl-3-phenyl-2-(trifluoromethyl)pyrazolo[1,5-a]pyrimidin-7(4H)-one] in this work.

An IC50 [1] of under 20 µM and an IC50 ([2]; Homo sapiens, THP-1) of over 100 µM were found for `COc1cc(CN)cc2oc(-c3c(C)[nH]c4c(-c5ccccc5)c(C(F)(F)F)nn4c3=O)nc12` [Compound C1135, 6-(6-(aminomethyl)-4-methoxybenzo[d]oxazol-2-yl)-5-methyl-3-phenyl-2-(trifluoromethyl)pyrazolo[1,5-a]pyrimidin-7(4H)-one] in this work.

An IC50 [1] of under 20 µM and an IC50 ([2]; Homo sapiens, THP-1) of 20 to 100 µM were found for `COc1cccc(NC(=O)c2c(C)[nH]c3c(-c4ccccc4)c(C(F)(F)F)nn3c2=O)c1F` [Compound A1136, N-(2-fluoro-3-methoxyphenyl)-5-methyl-7-oxo-3-phenyl-2-(trifluoromethyl)-4,7-dihydropyrazolo[1,5-a]pyrimidine-6-carboxamide] in this work.

An IC50 [1] of under 20 µM and an IC50 ([2]; Homo sapiens, THP-1) of under 20 µM were found for `CNc1cc(OC)c2nc(-c3c(C)[nH]c4c(-c5ccccc5)c(C(F)(F)F)nn4c3=O)oc2c1` [Compound C1161, 6-(4-methoxy-6-(methylamino)benzo[d]oxazol-2-yl)-5-methyl-3-phenyl-2-(trifluoromethyl)pyrazolo[1,5-a]pyrimidin-7(4H)-one] in this work.

An IC50 [1] of under 20 µM and an IC50 ([2]; Homo sapiens, THP-1) of 20 to 100 µM were found for `COCc1nc(-c2c(C)[nH]c3c(-c4ccccc4)c(C(F)(F)F)nn3c2=O)oc1C(C)C` [Compound C1153, 6-(5-isopropyl-4-(methoxymethyl)oxazol-2-yl)-5-methyl-3-phenyl-2-(trifluoromethyl)pyrazolo[1,5-a]pyrimidin-7(4H)-one] in this work.

An IC50 [1] of under 20 µM and an IC50 ([2]; Homo sapiens, THP-1) of over 100 µM were found for `COc1cccc2oc(-c3c(-c4cnn(C)c4)[nH]c4c(-c5ccccc5)c(C(F)(F)F)nn4c3=O)nc12` [Compound C1255, 6-(4-methoxybenzo[d]oxazol-2-yl)-5-(1-methyl-1H-pyrazol-4-yl)-3-phenyl-2-(trifluoromethyl)pyrazolo[1,5-a]pyrimidin-7(4H)-one] in this work.

An IC50 [1] of under 20 µM and an IC50 ([2]; Homo sapiens, THP-1) of over 100 µM were found for `COc1c(Cl)ccc2oc(-c3c(C)[nH]c4c(-c5ccccc5)c(C(F)(F)F)nn4c3=O)nc12` [Compound C1095, 6-(5-chloro-4-methoxybenzo[d]oxazol-2-yl)-5-methyl-3-phenyl-2-(trifluoromethyl)pyrazolo[1,5-a]pyrimidin-7(4H)-one] in this work.

An IC50 [1] of under 20 µM and an IC50 ([2]; Homo sapiens, THP-1) of over 100 µM were found for `COc1c(N)ccc2oc(-c3c(C)[nH]c4c(-c5ccccc5)c(C#N)nn4c3=O)nc12` [Compound C1250, 6-(5-amino-4-methoxybenzo[d]oxazol-2-yl)-5-methyl-7-oxo-3-phenyl-4,7-dihydropyrazolo[1,5-a]pyrimidine-2-carbonitrile] in this work.

An IC50 [1] of under 20 µM and an IC50 ([2]; Homo sapiens, THP-1) of over 100 µM were found for `Cc1[nH]c2c(-c3ccccc3)c(C(F)(F)F)nn2c(=O)c1C(=O)Nc1cccc2c1CCO2` [Compound A1102, N-(2,3-dihydrobenzofuran-4-yl)-5-methyl-7-oxo-3-phenyl-2-(trifluoromethyl)-4,7-dihydropyrazolo[1,5-a]pyrimidine-6-carboxamide] in this work.

An IC50 [1] of under 20 µM and an IC50 ([2]; read-out: THP-1 IC50) of under 20 µM were found for `CO[C@H]1CCCCC1c1nnc(-c2c(C)[nH]c3c(-c4ccccc4)c(C(F)(F)F)nn3c2=O)o1` (stereo partly shown) [D1046 Iso-1] in this work.

An IC50 [1] of under 20 µM and an IC50 ([2]; Homo sapiens, THP-1) of 20 to 100 µM were found for `Cc1[nH]c2c(-c3ccccc3)c(C(F)(F)F)nn2c(=O)c1-c1ncc(C2CCCOC2)o1` (stereo not shown) [Compound C1027, 5-methyl-3-phenyl-6-(5-(tetrahydro-2H-pyran-3-yl)oxazol-2-yl)-2-(trifluoromethyl)pyrazolo[1,5-a]pyrimidin-7(4H)-one] in this work.

An IC50 [1] of under 20 µM and an IC50 ([2]; Homo sapiens, THP-1) of 20 to 100 µM were found for `COc1cccnc1NC(=O)c1c(C)[nH]c2c(-c3ccccc3)c(C(F)(F)F)nn2c1=O` [Compound A1100, N-(3-methoxypyridin-2-yl)-5-methyl-7-oxo-3-phenyl-2-(trifluoromethyl)-4,7-dihydropyrazolo[1,5-a]pyrimidine-6-carboxamide] in this work.

An IC50 [1] of under 20 µM and an IC50 ([2]; Homo sapiens, THP-1) of over 100 µM were found for `COc1cccc2nc(-c3c(C)[nH]c4c(-c5ccccc5)c(C(F)(F)F)nn4c3=O)cn12` [Compound C1057, 6-(5-methoxyimidazo[1,2-a]pyridin-2-yl)-5-methyl-3-phenyl-2-(trifluoromethyl)pyrazolo[1,5-a]pyrimidin-7(4H)-one] in this work.
